Test results: US5463074A, “Imidazolyl or imidazoylalkyl substituted with a four or five membered nitrogen containing heterocyclic ring” (Schering Corporation, priority 1994, dated 1995)

Test system: H3 receptors
Experiment: not given
Details: H3 receptors in rat brain; cited from earlier work

In the case of `NCCc1c[nH]cn1` [histamine], the “maximum inhibition of release” value is listed as “approximately 60%”.

Molecular target: T1, H3 receptor (Cavia porcellus, UniProt Q9JI35)
T1 construct: The source of the H3 receptors in this experiment was guinea pig brain; from tissue; host or cells: guinea pig brain membranes
Experiment: H3 Receptor Binding Assay
Set-up: species or system guinea pig
Details: not given
Experimental: The source of the H3 receptors in this experiment was guinea pig brain. The animals used weighted 400-600 g. The tissue was homogenized using a Polytron in a solution of 50 mM Tris, pH 7.5. The final concentration of tissue in the homogenization buffer was 10% w/v. The homogeneates were centrifuged at 1000×g for 10 min. in order to remove clumps of tissue and debris. The resulting supernatants were then centrifuged at 50,000×g for 20 min. in order to sediment the membranes, which were next washed 3 times in homogenization buffer (50,000×g for 20 min. each). The membranes were frozen and stored at -70° C. until needed.
All compounds to be tested were dissolved in DMSO and then diluted into the binding buffer (50 mM Tris, pH 7.5) such that the final concentration was 2 μg/mL with 0.1% DMSO. Membranes were then added (400 μg of protein) to the reaction tubes. The reaction was started by the addition of 3 nM [^3 H]R-α-methylhistamine (8.8 CVmmol) or [^3 H]-N-methylhistamine (80 Cvmmol) and incubated at 30° for 30 min.

T1 sequence (Q9JI35 whole entry): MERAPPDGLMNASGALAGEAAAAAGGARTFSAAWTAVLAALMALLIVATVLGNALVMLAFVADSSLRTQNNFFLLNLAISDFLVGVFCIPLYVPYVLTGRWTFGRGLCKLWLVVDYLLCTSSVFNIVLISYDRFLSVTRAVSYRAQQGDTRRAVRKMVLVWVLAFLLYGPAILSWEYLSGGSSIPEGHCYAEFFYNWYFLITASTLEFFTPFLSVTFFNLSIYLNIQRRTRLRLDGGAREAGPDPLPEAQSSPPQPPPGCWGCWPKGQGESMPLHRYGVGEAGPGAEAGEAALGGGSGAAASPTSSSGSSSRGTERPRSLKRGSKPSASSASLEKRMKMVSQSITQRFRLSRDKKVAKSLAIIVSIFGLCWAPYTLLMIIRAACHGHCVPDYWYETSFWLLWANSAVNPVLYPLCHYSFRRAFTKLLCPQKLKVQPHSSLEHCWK

In the case of `CCCCC[C@@H]1CNC[C@@H]1c1c[nH]cn1` (relative stereo), the Ki is reported as 77 nM.

Same assay, conditions: at a concentration of 2 μg/mL; guinea pig brain membranes; read-out: % inhibition (of specific binding of radioactive ligand)

Compound `CC1(C)CNCC1c1c[nH]cn1` (stereo not shown) has an inhibition at 2 µg/mL of 68%.

Same assay, conditions: guinea pig brain membranes; [3H]R-α-methylhistamine or [3H]-N-methylhistamine, 30°, 30 min; read-out: H3 Binding Ki

Going from `c1nc(C2CCNC2)c[nH]1` (stereo not shown) to `CC1(C)NCCC1c1c[nH]cn1` (stereo not shown), the Ki rises from 3 nM to 66 nM (22-fold).

Compared with `CC1(c2c[nH]cn2)CCNC1` (stereo not shown), `C[C@@H]1NCC[C@H]1c1c[nH]cn1` (relative stereo) is 28-fold lower in Ki: 170 nM for the first, 6 nM for the second. The second binds more tightly here.

First: c1nc(CC2CCCN2)c[nH]1 (stereo not shown)
Second: CN1CCC(Cc2c[nH]cn2)C1 (stereo not shown)
The Ki of the first is 37-fold higher: 110 nM for the first, 3 nM for the second. The second binds more tightly here.

Going from `C[C@@H]1NC[C@H]1c1c[nH]cn1` (relative stereo) to `C[C@@H]1C[C@@H](c2c[nH]cn2)CN1` (relative stereo), the Ki rises from 7 nM to 76 nM (11-fold).

Compared with `C[C@@H]1CNC[C@H]1c1cnc[nH]1` (relative stereo), `CC[C@@H]1CNC[C@H]1c1c[nH]cn1` (relative stereo) is 19-fold higher in Ki: 8 nM for the first, 150 nM for the second. The first binds more tightly here.

`c1ccc(CC[C@@H]2NCC[C@@H]2c2c[nH]cn2)cc1` (relative stereo) and `CCCCC[C@@H]1CNC[C@H]1c1c[nH]cn1` (relative stereo) are within 1.5-fold of each other in Ki: 600 nM for the first, 450 nM for the second.

Same assay, conditions: read-out: % inhibition (of specific binding of radioactive ligand)

For `c1ccc(C[C@@H]2NCC[C@H]2c2c[nH]cn2)cc1` (relative stereo), the inhibition at 2 µg/mL was 7%.
